Results from PubChem BioAssay AID977629 (Broad Institute, 2014).
Records with an inconclusive call do not appear. Activity calls are given as the source filed them.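 How the source made its calls: active means drop in red signal of normal-ribosome bacteria at least twice that in human-like-ribosome bacteria, growth inhibited under 30%; inactive means the rest, inconclusive results apart.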

How the values were obtained:
[1] = system: E. coli WT-RFP / h24-humanized GFP mixed culture, 24 h; test: E. coli strain growth, wild-type against h24 humanized mutant – h24 mutant GFP vs wild-type RFP, cherry-pick, dose response (AID 977629)
[2] = as above; settings: E. coli WT-RFP / h24-humanized GFP mixed culture, 24 h; at 50 µM (top of the series)
[3] = measured here: total growth OD600
[4] = measured here: h24 humanized mutant GFP signal

Row | SMILES | AC50 [1] | AC50 [1, 3] [µM] | activity change, negative = inhibition [2] | AC50 [1, 4] [µM]
1 | COC(=O)c1c(NC(=O)CCC(=O)O)sc(Cc2ccccc2)c1C | > 100 µM (inactive) | 30 | – | –
2 | COc1ccc2[nH]c3c(=O)n(CCCCC(=O)NCCC(C)C)c(=S)[nH]c3c2c1 | – | – | 64.3 (inactive) | –
3 | Cc1ccc(C)c(NC(=O)CSc2nc3nc(-c4cccs4)cc(C(F)(F)F)c3c(=O)[nH]2)c1 | – | 20.1 | 52.6 (inactive) | 31.6
4 | O=C(O)c1cc([N+](=O)[O-])ccc1NCc1ccccc1 | – | 5.79 | -0.454 (inactive) | > 100
5 | C[C@@H]1CCCCO[C@H](CN(C)C(=O)CCCN(C)C)[C@H](C)CN([C@@H](C)CO)C(=O)c2cc(NC(=O)Nc3cccc4ccccc34)ccc2O1 | – | > 100 | 101 (inactive) | –
6 | Cc1noc(C)c1NC(=O)Nc1ccc2c(c1)C(=O)N([C@H](C)CO)C[C@@H](C)[C@@H](CN(C)C(=O)Nc1ccc3c(c1)OCO3)OCCCC[C@@H](C)O2 | – | – | 86.8 (inactive) | –
7 | CCN(CC)CCn1c2ccccc2c2nc3ccc([N+](=O)[O-])cc3cc21 | – | 7.41 | 21.8 (inactive) | 6.47
8 | COc1ccc(Cn2c(-c3ccc(Cl)cc3)c[n+]3ccccc23)cc1 | – | – | 21 (inactive) | –
9 | COc1ccc(-n2cc(-c3ccccc3)c3c(N4CCOCC4)ncnc32)cc1 | – | 27.8 | 12.7 (inactive) | –
